ChEMBL document CHEMBL4616609, “Potent non-hydroxamate inhibitors of histone deacetylase-8: Role and scope of an isoindolin-2-yl linker with an α-amino amide as the zinc-binding unit” (Bioorg Med Chem Lett, 2020)

molecular target: T1, Histone deacetylase 8 (Homo sapiens, UniProt Q9BY41); assay: Inhibition of HDAC8 (unknown origin)
T1 sequence (Q9BY41 whole entry): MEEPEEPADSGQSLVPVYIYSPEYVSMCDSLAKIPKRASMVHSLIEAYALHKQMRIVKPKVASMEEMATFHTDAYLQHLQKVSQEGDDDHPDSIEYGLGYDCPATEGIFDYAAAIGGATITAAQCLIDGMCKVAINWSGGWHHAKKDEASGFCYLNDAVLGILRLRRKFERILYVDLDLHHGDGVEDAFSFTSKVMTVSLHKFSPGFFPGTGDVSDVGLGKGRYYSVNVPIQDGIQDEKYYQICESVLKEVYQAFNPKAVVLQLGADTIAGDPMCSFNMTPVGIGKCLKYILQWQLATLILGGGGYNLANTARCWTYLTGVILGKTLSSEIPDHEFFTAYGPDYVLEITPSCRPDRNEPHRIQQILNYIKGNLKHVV

SMILES | IC50 [µM]
N[C@H](Cc1ccc(Cl)cc1Cl)C(=O)O | 410
N[C@H](Cc1ccccc1)C(=O)N1Cc2ccccc2C1 | 1.15
N[C@H](Cc1ccc(Cl)cc1Cl)C(=O)NCCc1ccc(O)cc1 | 1.25
C[C@H](NC(=O)[C@H](N)Cc1ccc(Cl)cc1Cl)c1ccccc1 | 76.4
N[C@H](Cc1ccc(Cl)cc1Cl)C(=O)NCCc1ccccc1 | 2.5
CNC(=O)[C@H](N)Cc1ccc(Cl)cc1Cl | 16.5
N[C@H](Cc1ccc(Cl)cc1Cl)C(=O)NC1Cc2ccccc2C1 | 8.76
N[C@H](Cc1ccc(Cl)cc1Cl)C(=O)NCCc1c[nH]c2ccccc12 | 0.97
CNC(=O)c1ccc2c(c1)CN(C(=O)[C@H](N)Cc1ccc(Cl)cc1Cl)C2 | 0.258
N[C@H](Cc1ccc(Cl)cc1Cl)C(=O)NCCc1cccnc1 | 3.85
CN1CCN(C(=O)[C@H](N)Cc2ccccc2)CC1 | 11
CC(=O)Nc1ccc2c(c1)CN(C(=O)[C@H](N)Cc1ccc(Cl)cc1Cl)C2 | 0.101
COc1ccc(NC(=O)[C@H](N)Cc2ccc(Cl)cc2Cl)cc1 | 2.67
N[C@H](Cc1ccc(Cl)cc1Cl)C(=O)NCCc1c[nH]c2ccc(O)cc12 | 1.77
N[C@H](Cc1ccc(Cl)cc1Cl)C(=O)N1Cc2ccc(NC(=O)CCc3ccccc3)cc2C1 | 0.259
Nc1ccc2c(c1)CN(C(=O)[C@H](N)Cc1ccc(Cl)cc1Cl)C2 | 0.13

SMILES | IC50 [µM]
CNCc1ccc2c(c1)CN(C(=O)[C@H](N)Cc1ccc(Cl)cc1Cl)C2 | 0.176
N[C@H](Cc1ccc(Cl)cc1Cl)C(=O)Nc1ccc2[nH]c3ccccc3c2c1 | 10.5
N[C@H](Cc1ccc(O)cc1)C(=O)N1CCc2ccccc2C1 | 21.3
N[C@H](Cc1ccc(Cl)cc1Cl)C(=O)N1Cc2ccccc2C1 | 0.21
N[C@H](Cc1ccc(Cl)cc1Cl)C(=O)N1Cc2ccc(NC(=O)Cc3ccccc3)cc2C1 | 0.232
N[C@H](Cc1ccc(Cl)cc1Cl)C(=O)NCc1ccccc1 | 4.28
N[C@H](Cc1ccccc1)C(=O)N1CCc2ccccc2C1 | 10.7
COc1ccc(CNC(=O)[C@H](N)Cc2ccc(Cl)cc2Cl)cc1 | 16.6
N[C@H](Cc1ccc(Cl)cc1Cl)C(=O)NCCc1ccc(O)c(O)c1 | 2.07
N[C@H](Cc1ccc(Cl)cc1Cl)C(=O)NCCCc1ccccc1 | 2.01
N[C@H](Cc1ccc(O)cc1)C(=O)N1Cc2ccccc2C1 | 4.28
N[C@H](Cc1ccccc1)C(=O)N1CCN(c2ccccc2)CC1 | > 600
C[C@@H](NC(=O)[C@H](N)Cc1ccc(Cl)cc1Cl)c1ccccc1 | 25.3
N[C@H](Cc1ccc(Cl)cc1Cl)C(=O)NCc1cccs1 | 3
N[C@H](Cc1ccc(Cl)cc1Cl)C(=O)N1CCc2ccccc2C1 | 2.06

molecular target: Histone deacetylase 1 (Homo sapiens, UniProt Q13547); assay: Inhibition of HDAC1 (unknown origin)
Sequence (Q13547 whole entry): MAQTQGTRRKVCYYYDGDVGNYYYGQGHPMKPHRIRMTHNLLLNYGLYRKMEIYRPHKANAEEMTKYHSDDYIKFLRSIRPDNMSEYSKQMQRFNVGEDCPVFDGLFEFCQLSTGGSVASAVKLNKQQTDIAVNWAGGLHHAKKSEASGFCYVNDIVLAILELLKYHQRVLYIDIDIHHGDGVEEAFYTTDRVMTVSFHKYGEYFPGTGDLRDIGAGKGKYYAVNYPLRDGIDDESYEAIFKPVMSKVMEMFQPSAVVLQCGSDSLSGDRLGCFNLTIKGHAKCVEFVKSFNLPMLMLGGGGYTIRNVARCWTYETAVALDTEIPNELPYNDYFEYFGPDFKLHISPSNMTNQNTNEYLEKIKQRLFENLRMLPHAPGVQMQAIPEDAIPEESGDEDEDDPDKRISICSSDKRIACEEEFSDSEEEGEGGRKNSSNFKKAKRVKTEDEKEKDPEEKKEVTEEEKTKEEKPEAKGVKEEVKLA

SMILES | IC50 [µM]
CC(=O)Nc1ccc2c(c1)CN(C(=O)[C@H](N)Cc1ccc(Cl)cc1Cl)C2 | 8.8

molecular target: Histone deacetylase 2 (Homo sapiens, UniProt Q92769); assay: Inhibition of HDAC2 (unknown origin)
Sequence (Q92769 whole entry): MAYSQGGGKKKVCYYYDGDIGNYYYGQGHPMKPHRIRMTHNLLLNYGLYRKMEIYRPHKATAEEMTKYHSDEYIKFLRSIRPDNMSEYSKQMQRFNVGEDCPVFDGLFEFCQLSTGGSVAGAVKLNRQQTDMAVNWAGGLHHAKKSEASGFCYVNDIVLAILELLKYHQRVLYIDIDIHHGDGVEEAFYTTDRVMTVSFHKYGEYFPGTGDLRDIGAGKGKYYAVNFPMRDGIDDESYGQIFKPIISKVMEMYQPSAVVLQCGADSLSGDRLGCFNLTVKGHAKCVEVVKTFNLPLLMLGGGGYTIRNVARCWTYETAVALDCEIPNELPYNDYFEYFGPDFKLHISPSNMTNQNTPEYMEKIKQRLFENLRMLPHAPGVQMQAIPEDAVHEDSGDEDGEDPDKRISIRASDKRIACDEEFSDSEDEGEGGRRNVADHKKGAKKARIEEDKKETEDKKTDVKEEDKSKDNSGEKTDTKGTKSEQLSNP

SMILES | IC50 [µM]
CC(=O)Nc1ccc2c(c1)CN(C(=O)[C@H](N)Cc1ccc(Cl)cc1Cl)C2 | > 30

molecular target: T2, Protein deacetylase HDAC6 (Homo sapiens, UniProt Q9UBN7); assay: Inhibition of HDAC6 (unknown origin)
T2 sequence (Q9UBN7 whole entry): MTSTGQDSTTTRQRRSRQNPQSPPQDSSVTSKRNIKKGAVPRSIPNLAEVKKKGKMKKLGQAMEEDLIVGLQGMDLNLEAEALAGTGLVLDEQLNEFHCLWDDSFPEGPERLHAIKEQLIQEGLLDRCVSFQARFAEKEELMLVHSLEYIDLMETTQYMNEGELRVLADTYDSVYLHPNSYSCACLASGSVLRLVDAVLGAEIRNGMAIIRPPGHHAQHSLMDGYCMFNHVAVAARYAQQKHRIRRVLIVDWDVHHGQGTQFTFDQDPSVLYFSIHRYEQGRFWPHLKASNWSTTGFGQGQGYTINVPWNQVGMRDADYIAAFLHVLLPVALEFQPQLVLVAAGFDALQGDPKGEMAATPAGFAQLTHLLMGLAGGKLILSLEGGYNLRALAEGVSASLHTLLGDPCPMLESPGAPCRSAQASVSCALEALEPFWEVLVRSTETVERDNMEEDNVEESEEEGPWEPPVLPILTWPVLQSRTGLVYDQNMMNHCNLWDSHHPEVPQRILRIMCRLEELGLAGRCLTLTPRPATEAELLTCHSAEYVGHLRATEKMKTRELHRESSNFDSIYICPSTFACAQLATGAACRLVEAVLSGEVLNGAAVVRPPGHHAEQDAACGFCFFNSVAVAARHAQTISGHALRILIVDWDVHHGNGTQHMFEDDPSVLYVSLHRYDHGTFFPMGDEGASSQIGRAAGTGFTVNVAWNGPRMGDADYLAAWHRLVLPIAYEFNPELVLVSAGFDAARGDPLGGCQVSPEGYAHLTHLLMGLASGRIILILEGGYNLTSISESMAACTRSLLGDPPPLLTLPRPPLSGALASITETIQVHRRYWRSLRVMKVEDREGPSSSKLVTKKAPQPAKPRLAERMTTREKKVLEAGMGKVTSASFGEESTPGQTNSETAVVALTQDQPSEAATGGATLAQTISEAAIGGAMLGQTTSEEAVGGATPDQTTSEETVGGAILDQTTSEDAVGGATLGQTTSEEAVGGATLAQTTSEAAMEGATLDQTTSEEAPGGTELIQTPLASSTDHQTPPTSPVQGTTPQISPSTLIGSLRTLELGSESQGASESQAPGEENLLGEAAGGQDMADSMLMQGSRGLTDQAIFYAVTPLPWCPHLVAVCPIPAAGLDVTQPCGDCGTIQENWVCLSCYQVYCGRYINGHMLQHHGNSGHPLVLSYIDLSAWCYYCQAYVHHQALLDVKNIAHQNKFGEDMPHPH

SMILES | IC50 [µM]
CC(=O)Nc1ccc2c(c1)CN(C(=O)[C@H](N)Cc1ccc(Cl)cc1Cl)C2 | > 30
